In brackets after ≈: the same amount, converted by molar mass. Activity calls are given as the source filed them. The rule behind the calls is not given here.
Legend:
[1] = system: Mycobacterium tuberculosis; test: Antimycobacterial activity against Mycobacterium tuberculosis H37Rv ATCC 27294 assessed as inhibition of bacterial growth measured after 7 days by resazurin microtitre assay; type: functional; settings: H37Rv ATCC 27294, 168 h, time 7 day
[2] = Selectivity index, ratio of CC50 for African green monkey Vero cells to MIC for Mycobacterium tuberculosis H37Rv ATCC 27294; type: toxicity; settings: read-out: Selectivity Index
Acinetobacter baumannii = test: Antibacterial activity against Acinetobacter baumannii BAA 1605 assessed as reduction in bacterial growth incubated for 16 to 18 hrs by microtiter plate assay; type: functional; settings: time 16-18 hrs
[3] = system: Mycobacteroides abscessus; test: Antimycobacterial activity against Mycobacterium abscessus ATCC 19977 assessed as inhibition of bacterial growth after 48 hrs by resazurin microtitre assay; type: functional
[4] = system: Mycobacterium tuberculosis; test: Antimycobacterial activity against Mycobacterium tuberculosis H37Rv assessed as reduction in log10CFU at 1XMIC measured after 5 to 6 days by time kill assay; type: functional, organism-based; settings: time 5-6 day
Klebsiella pneumoniae = test: Antibacterial activity against Klebsiella pneumoniae BAA 1705 assessed as reduction in bacterial growth incubated for 16 to 18 hrs by microtiter plate assay; type: functional; settings: time 16-18 hrs
[5] = Cytotoxicity against African green monkey Vero cells assessed as reduction in cell viability measured after 72 hrs by MTT assay; type: toxicity, cell-based; settings: chlorocebus sabaeus
[6] = system: Mycolicibacterium fortuitum; test: Antimycobacterial activity against Mycobacterium fortuitum ATCC 6841 assessed as inhibition of bacterial growth after 48 hrs by resazurin microtitre assay; type: functional
Staphylococcus aureus = test: Antibacterial activity against Staphylococcus aureus ATCC 29213 assessed as reduction in bacterial growth incubated for 16 to 18 hrs by microtiter plate assay; type: functional; settings: time 16-18 hrs
Mycobacteroides chelonae = test: Antimycobacterial activity against Mycobacterium chelonae ATCC 6841 assessed as inhibition of bacterial growth after 48 hrs by resazurin microtitre assay; type: functional
Pseudomonas aeruginosa = test: Antibacterial activity against Pseudomonas aeruginosa ATCC 27853 assessed as reduction in bacterial growth incubated for 16 to 18 hrs by microtiter plate assay; type: functional; settings: time 16-18 hrs
[7] = system: Mycobacterium tuberculosis; test: Antimycobacterial activity against Mycobacterium tuberculosis H37Rv assessed as reduction in log10CFU at 10 X MIC measured after 5 to 6 days by time kill assay; type: functional, organism-based; settings: time 5-6 day
Escherichia coli = test: Antibacterial activity against Escherichia coli ATCC 25922 assessed as reduction in bacterial growth incubated for 16 to 18 hrs by microtiter plate assay; type: functional; settings: time 16-18 hrs
[8] = Metabolic stability in human liver microsomes assessed as elimination rate constant at 1 uM preincubated for 5 mins in presence of NADPH incubated up to 60 mins by LC-MS/MS analysis; type: ADME, Microsome; settings: time 65 min
[9] = system: Mycobacterium tuberculosis; test: Antimycobacterial activity against Mycobacterium tuberculosis H37Rv assessed as minimum bactericidal concentration by time kill assay; type: functional
[10] = system: Mycobacterium tuberculosis; test: Antimycobacterial activity against Mycobacterium tuberculosis H37Rv at 10 X MIC measured after 5 to 7 days by time kill assay; type: functional; settings: time 5-7 day
[11] = Metabolic stability in human liver microsomes assessed as half life at 1 uM preincubated for 5 mins in presence of NADPH incubated up to 60 mins by LC-MS/MS analysis; type: ADME, Microsome; settings: time 65 min
[12] = Metabolic stability in human liver microsomes assessed as intrinsic clearance at 1 uM preincubated for 5 mins in presence of NADPH incubated up to 60 mins by LC-MS/MS analysis; type: ADME, Microsome; settings: time 65 min, read-out: CLH
[13] = Aqueous solubility in phosphate buffer at pH 7.4 incubated for 4 hrs by HPLC analysis; type: physicochemical
[14] = system: Mycobacterium tuberculosis; test: Antimycobacterial activity against Mycobacterium tuberculosis H37Rv at 1 X MIC measured after 5 to 7 days by time kill assay; type: functional; settings: time 5-7 day

| SMILES | MIC [1] | selectivity ratio [2] | MIC (Acinetobacter baumannii) | MIC [3] | Activity [4] | MIC (Klebsiella pneumoniae) | CC50 at 72 h [5] | MIC [6] | MIC (Staphylococcus aureus) | MIC (Mycobacteroides chelonae) | MIC (Pseudomonas aeruginosa) | Activity [7] | MIC (Escherichia coli) | k el at 1 h, 1 µM [8] | MBC [9] | Activity [10] | half-life at 1 µM [11] | microsomal CLint at 1 µM [12] | solubility at 4 h [13] | Activity [14] |
| --- | --- | --- | --- | --- | --- | --- | --- | --- | --- | --- | --- | --- | --- | --- | --- | --- | --- | --- | --- | --- |
| O=C(/C=C/c1ccc([N+](=O)[O-])o1)c1ccc(Nc2nc3cc([N+](=O)[O-])ccc3o2)cc1 | 0.03 µg/mL (≈ 0.0714 µM) | > 800 | > 64 µg/mL | > 64 µg/mL | Active | > 64 µg/mL | 5 µg/mL (≈ 11.9 µM) | > 64 µg/mL | 4 µg/mL (≈ 9.52 µM) | > 64 µg/mL | > 64 µg/mL | Active | > 64 µg/mL |  |  |  |  |  |  |  |
| O=C(/C=C/c1ccc([N+](=O)[O-])o1)c1ccc(Nc2nc3cc(Cl)ccc3o2)cc1 | 0.03 µg/mL (≈ 0.0732 µM) | 160 | > 64 µg/mL | > 64 µg/mL |  | > 64 µg/mL | 5 µg/mL (≈ 12.2 µM) | > 64 µg/mL | 4 µg/mL (≈ 9.76 µM) | > 64 µg/mL | > 64 µg/mL |  | > 64 µg/mL | 0.000333 s⁻¹ | 0.03 µg/mL (≈ 0.0732 µM) | 100% | 34.6 min | 38.5 µL/min/mg | 2.5 µg/mL (≈ 6.1 µM) | 100% |
| O=C(/C=C/c1ccc([N+](=O)[O-])o1)c1cccc(Nc2nc3ccccc3o2)c1 | 0.06 µg/mL (≈ 0.16 µM) | 80 | > 64 µg/mL | > 64 µg/mL |  | > 64 µg/mL | 5 µg/mL (≈ 13.3 µM) | > 64 µg/mL | 16 µg/mL (≈ 42.6 µM) | > 64 µg/mL | > 64 µg/mL |  | > 64 µg/mL |  |  |  |  |  |  |  |
| CO[C@H]1/C=C/O[C@@]2(C)Oc3c(C)c(O)c4c(O)c(c(/C=N/N5CCN(C)CC5)c(O)c4c3C2=O)NC(=O)/C(C)=C\C=C\[C@H](C)[C@H](O)[C@@H](C)[C@@H](O)[C@@H](C)[C@H](OC(C)=O)[C@@H]1C [RIFAMPIN] | 0.03 µg/mL (≈ 0.0365 µM) |  |  |  | Active |  |  |  |  |  |  | Active |  |  |  |  |  |  |  |  |
| O=C(/C=C/c1ccc([N+](=O)[O-])o1)c1ccc(Nc2nc3ccccc3o2)cc1 | 0.12 µg/mL (≈ 0.32 µM) | 40 | > 64 µg/mL | > 64 µg/mL | Active | > 64 µg/mL | 5 µg/mL (≈ 13.3 µM) | > 64 µg/mL | 4 µg/mL (≈ 10.7 µM) | > 64 µg/mL | > 64 µg/mL | Active | > 64 µg/mL |  |  |  |  |  |  |  |
| CC(C)(C)c1ccc2oc(Nc3ccc(C(=O)/C=C/c4ccc([N+](=O)[O-])o4)cc3)nc2c1 | 0.5 µg/mL (≈ 1.16 µM) | < 10 | > 64 µg/mL | > 64 µg/mL |  | > 64 µg/mL | 5 µg/mL (≈ 11.6 µM) | > 64 µg/mL | 8 µg/mL (≈ 18.5 µM) | > 64 µg/mL | > 64 µg/mL |  | > 64 µg/mL |  |  |  |  |  |  |  |
| COc1ccc(C(=O)/C=C/c2ccc([N+](=O)[O-])o2)cc1Nc1nc2ccccc2o1 | 0.25 µg/mL (≈ 0.617 µM) | < 10 | > 64 µg/mL | > 64 µg/mL |  | > 64 µg/mL | 5 µg/mL (≈ 12.3 µM) | > 64 µg/mL | 8 µg/mL (≈ 19.7 µM) | > 64 µg/mL | > 64 µg/mL |  | > 64 µg/mL |  |  |  |  |  |  |  |
| Cc1ccc2oc(Nc3ccc(C(=O)/C=C/c4ccc([N+](=O)[O-])o4)cc3)nc2c1 | 0.06 µg/mL (≈ 0.154 µM) | 80 | > 64 µg/mL | > 64 µg/mL |  | > 64 µg/mL | 5 µg/mL (≈ 12.8 µM) | > 64 µg/mL | 4 µg/mL (≈ 10.3 µM) | > 64 µg/mL | > 64 µg/mL |  | > 64 µg/mL |  |  |  |  |  |  |  |
| COc1ccc(/C=C/C(=O)c2ccc(Nc3nc4ccccc4o3)cc2)c(OC)c1OC | 16 µg/mL (≈ 37.2 µM) |  | > 64 µg/mL | > 64 µg/mL |  | > 64 µg/mL |  | > 64 µg/mL | > 64 µg/mL | > 64 µg/mL | > 64 µg/mL |  | > 64 µg/mL |  |  |  |  |  |  |  |

From ChEMBL document CHEMBL5143690, “Identification of nitrofuranylchalcone tethered benzoxazole-2-amines as potent inhibitors of drug resistant Mycobacterium tuberculosis demonstrating bactericidal efficacy” (Bioorg Med Chem, 2022)
